Reference: patent publication US8691865B2 (AbbVie Inc., priority 2008, dated 2014)

Each molecule was assayed against human Cav2.2 (Homo sapiens, UniProt Q00975) (assay: Assessment of calcium channel activity using FLIPR (Ca2+ influx in IMR32 cells)). Settings: not given.
Assay type: cell-based
Outline: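 IC50 values derive from nonlinear sigmoidal fitting of percent inhibition, relative to inhibitor-free activity, of Ca2+ influx read by FLIPR. Cells were IMR32 human neuroblastoma, plated at 1−1.2×10^5 per well and grown 48 h at 37 °C.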

Sequence of human Cav2.2 (Q00975 whole entry): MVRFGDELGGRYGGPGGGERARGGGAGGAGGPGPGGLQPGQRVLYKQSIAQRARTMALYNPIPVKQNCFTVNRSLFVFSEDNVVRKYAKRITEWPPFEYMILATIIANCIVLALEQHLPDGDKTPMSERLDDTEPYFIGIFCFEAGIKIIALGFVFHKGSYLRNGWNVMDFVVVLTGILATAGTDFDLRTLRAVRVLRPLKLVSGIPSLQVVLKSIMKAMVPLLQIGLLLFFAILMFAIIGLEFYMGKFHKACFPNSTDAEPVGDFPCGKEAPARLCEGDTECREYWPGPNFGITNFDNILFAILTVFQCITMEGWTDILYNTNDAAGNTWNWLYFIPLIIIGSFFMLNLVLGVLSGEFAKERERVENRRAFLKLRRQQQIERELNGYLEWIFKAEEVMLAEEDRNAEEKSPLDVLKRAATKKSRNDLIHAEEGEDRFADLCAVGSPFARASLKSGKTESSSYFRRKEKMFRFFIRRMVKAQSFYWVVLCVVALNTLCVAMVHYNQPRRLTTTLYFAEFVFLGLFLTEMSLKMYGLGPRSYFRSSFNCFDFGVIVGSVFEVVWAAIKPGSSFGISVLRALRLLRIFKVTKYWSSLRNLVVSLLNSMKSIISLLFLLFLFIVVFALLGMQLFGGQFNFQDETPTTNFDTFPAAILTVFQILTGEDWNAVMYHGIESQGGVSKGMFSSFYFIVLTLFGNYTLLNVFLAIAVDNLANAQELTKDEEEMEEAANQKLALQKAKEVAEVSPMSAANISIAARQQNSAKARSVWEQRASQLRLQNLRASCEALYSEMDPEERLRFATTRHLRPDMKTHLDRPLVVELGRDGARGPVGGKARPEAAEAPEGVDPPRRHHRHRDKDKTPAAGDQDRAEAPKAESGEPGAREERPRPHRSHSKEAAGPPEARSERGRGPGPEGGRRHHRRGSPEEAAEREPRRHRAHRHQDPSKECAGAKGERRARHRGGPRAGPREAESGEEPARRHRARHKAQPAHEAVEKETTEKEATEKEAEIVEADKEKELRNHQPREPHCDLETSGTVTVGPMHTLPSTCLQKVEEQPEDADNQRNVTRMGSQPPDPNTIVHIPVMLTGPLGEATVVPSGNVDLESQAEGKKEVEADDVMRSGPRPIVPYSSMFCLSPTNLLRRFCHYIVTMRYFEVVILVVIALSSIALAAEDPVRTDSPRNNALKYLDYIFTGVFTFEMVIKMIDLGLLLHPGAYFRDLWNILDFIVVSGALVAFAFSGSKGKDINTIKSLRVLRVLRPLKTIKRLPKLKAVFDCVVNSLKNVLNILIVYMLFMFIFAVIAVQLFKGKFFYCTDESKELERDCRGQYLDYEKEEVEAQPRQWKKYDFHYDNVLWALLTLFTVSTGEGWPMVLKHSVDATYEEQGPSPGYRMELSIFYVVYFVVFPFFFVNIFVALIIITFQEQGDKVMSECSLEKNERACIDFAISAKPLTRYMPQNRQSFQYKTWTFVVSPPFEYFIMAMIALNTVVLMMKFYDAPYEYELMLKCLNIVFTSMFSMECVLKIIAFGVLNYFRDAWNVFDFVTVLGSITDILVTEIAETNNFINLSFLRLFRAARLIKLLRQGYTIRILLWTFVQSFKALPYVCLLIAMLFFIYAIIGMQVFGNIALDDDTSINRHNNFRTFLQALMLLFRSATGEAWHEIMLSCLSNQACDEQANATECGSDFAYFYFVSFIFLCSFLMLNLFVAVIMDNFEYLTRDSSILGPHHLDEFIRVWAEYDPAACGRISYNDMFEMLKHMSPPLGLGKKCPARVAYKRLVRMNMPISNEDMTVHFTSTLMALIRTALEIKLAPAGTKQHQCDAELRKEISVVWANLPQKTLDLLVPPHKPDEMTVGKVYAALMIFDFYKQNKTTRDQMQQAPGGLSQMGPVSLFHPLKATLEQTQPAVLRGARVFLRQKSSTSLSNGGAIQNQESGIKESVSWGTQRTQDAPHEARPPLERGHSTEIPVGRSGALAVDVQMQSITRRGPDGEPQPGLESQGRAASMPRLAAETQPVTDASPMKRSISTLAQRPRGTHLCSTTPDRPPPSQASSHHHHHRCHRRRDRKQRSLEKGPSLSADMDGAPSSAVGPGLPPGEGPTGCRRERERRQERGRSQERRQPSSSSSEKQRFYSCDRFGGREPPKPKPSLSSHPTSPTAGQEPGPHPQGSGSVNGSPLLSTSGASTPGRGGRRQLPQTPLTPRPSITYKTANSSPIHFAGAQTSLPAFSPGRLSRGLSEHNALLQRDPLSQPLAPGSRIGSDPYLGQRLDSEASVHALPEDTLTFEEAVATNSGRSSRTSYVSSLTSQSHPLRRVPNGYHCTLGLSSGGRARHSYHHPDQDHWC
Sequence of human Cav2.2 (P54289 25-956 partner limits assumed): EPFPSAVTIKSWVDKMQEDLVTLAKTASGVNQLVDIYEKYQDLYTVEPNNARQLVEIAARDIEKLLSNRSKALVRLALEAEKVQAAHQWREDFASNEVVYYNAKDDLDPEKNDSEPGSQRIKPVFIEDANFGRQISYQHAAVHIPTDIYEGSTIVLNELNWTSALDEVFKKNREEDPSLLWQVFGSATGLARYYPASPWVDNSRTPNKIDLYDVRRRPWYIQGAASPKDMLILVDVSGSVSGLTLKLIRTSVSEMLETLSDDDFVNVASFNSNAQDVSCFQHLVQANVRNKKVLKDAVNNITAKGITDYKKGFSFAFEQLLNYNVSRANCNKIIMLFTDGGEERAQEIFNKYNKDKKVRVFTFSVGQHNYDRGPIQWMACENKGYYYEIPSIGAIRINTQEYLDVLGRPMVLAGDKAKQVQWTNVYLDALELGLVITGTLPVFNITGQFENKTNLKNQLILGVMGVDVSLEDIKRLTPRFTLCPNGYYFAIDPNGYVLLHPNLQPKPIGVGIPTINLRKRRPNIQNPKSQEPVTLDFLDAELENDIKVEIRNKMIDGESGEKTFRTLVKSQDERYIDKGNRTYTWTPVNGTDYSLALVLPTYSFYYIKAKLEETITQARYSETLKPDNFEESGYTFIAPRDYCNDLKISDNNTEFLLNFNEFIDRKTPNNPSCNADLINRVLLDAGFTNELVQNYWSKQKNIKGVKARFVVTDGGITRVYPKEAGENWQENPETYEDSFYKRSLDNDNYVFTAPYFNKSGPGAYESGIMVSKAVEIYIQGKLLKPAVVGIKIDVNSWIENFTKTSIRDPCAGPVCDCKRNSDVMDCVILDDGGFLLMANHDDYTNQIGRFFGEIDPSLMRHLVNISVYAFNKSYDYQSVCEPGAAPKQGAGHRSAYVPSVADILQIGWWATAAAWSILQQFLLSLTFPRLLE
Sequence of human Cav2.2 (P54289 957-1103 partner limits assumed): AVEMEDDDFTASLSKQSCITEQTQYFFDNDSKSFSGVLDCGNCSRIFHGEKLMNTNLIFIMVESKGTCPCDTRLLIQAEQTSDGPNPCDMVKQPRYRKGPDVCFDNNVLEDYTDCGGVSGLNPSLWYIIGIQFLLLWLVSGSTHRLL
Sequence of human Cav2.2 (P54284 whole entry partner): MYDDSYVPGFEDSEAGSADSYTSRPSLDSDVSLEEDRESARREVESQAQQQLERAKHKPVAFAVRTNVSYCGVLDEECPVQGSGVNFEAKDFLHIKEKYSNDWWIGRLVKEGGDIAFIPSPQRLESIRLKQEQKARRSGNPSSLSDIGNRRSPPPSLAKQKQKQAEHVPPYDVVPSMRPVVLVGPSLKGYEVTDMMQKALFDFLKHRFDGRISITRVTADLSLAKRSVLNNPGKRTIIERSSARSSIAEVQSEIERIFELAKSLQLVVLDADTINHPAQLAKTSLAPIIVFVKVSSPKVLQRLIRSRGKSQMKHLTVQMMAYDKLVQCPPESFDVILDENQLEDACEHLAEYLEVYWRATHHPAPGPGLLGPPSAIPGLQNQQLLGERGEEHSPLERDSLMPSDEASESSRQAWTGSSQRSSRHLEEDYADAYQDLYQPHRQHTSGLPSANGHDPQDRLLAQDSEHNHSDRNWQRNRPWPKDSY

Row | Structure (SMILES) | IC50
1 | CC(C)C[C@@H](O)C(=O)N[C@H]1CC[C@@H]2CN(c3cccc(C(F)(F)F)n3)C[C@@H]21 [Example 578, (2R)-2-hydroxy-4-methyl-N-{(3aR,4S,6aS)-2-[6-(trifluoromethyl)pyridin-2-yl]octahydrocyclopenta[c]pyrrol-4-yl}pentanamide] | 1 µM
2 | CC(C)(C)[C@H](N)C(=O)N[C@@H]1CC[C@H]2CN(Cc3ccccc3)C[C@H]21 [Example 356, N^1-[(3aS,4R,6aR)-2-benzyloctahydrocyclopenta[c]pyrrol-4-yl]-3-methyl-L-valinamide] | > 30 µM
3 | FC(F)(F)c1cccc(N2C[C@H]3CC[C@H](NCc4nc5ccccc5[nH]4)[C@H]3C2)n1 [Example 683, (3aR,4S,6aS)-N-(1H-benzimidazol-2-ylmethyl)-2-[6-(trifluoromethyl)pyridin-2-yl]octahydrocyclopenta[c]pyrrol-4-amine] | 0.71 µM
4 | CN[C@H](C(=O)N[C@H]1CC[C@@H]2CN(c3ccc(C(F)(F)F)cc3)C[C@@H]21)[C@H](C)O [Example 750, N^2-methyl-N-{(3aR,4S,6aS)-2-[4-(trifluoromethyl)phenyl]octahydrocyclopenta[c]pyrrol-4-yl}-L-allothreoninamide] | > 3 µM
5 | FC(F)(F)c1cccc(N2C[C@H]3CC[C@H](NCc4cn[nH]c4)[C@H]3C2)n1 [Example 696, (3aR,4S,6aS)-N-(1H-pyrazol-4-ylmethyl)-2-[6-(trifluoromethyl)pyridin-2-yl]octahydrocyclopenta[c]pyrrol-4-amine] | 3.52 µM
6 | CCC[C@H](NC)C(=O)N[C@H]1CC[C@@H]2CN(Cc3ccccc3)C[C@@H]21 [Example 365, N^1-[(3aR,4S,6aS)-2-benzyloctahydrocyclopenta[c]pyrrol-4-yl]-N^2-methyl-L-norvalinamide] | > 30 µM
7 | O=C(N[C@H]1CC[C@@H]2CN(c3ccccc3OC(F)(F)F)C[C@@H]21)[C@@H]1C[C@@H](F)CN1 [Example 656, (4R)-4-fluoro-N-{(3aR,4S,6aS)-2-[2-(trifluoromethoxy)phenyl]octahydrocyclopenta[c]pyrrol-4-yl}-L-prolinamide] | 2.16 µM
8 | CCCC(C(=O)NC1CCC2CN(Cc3ccc(F)cc3)CC21)N(C)C(=O)OC(C)(C)C (single isomer, unassigned) [Example 318] | 1.07 µM
9 | CCC[C@H](NC)C(=O)N[C@H]1CC[C@@H]2CN(S(=O)(=O)c3cccnc3)C[C@@H]21 [Example 535, N^2-methyl-N^1-[(3aR,4S,6aS)-2-(pyridin-3-ylsulfonyl)octahydrocyclopenta[c]pyrrol-4-yl]-L-norvalinamide] | > 30 µM
10 | CC(C)CC(=O)N[C@@H]1CC[C@H]2CN(Cc3ccccc3)C[C@H]21 [Example 236, N-[(3aS,4R,6aR)-2-benzyloctahydrocyclopenta[c]pyrrol-4-yl]-3-methylbutanamide] | > 30 µM
11 | CC(C)CC(C(=O)NC1CCC2CN(Cc3ccc(C(F)(F)F)c(F)c3)CC21)N(C)C(=O)OC(C)(C)C [Example 311, tert-butyl(S)-1-((3aS,4R,6aR)-2-(3-fluoro-4-(trifluoromethyl)benzyl)octahydrocyclopenta[c]pyrrol-4-ylamino)-4-methyl-1-oxopentan-2-ylmethyl)carbamate] | 2.05 µM
12 | Cc1c[nH]c(C(=O)N[C@H]2CC[C@@H]3CN(c4cccc(C(F)(F)F)n4)C[C@@H]32)c1 [Example 572, 4-methyl-N-{(3aR,4S,6aS)-2-[6-(trifluoromethyl)pyridin-2-yl]octahydrocyclopenta[c]pyrrol-4-yl}-1H-pyrrole-2-carboxamide] | 1.01 µM
13 | O=C(N[C@H]1CC[C@@H]2CN(c3ccc(C(F)(F)F)cn3)C[C@@H]21)c1cc2ccccc2[nH]1 [Example 568, N-{(3aR,4S,6aS)-2-[5-(trifluoromethyl)pyridin-2-yl]octahydrocyclopenta[c]pyrrol-4-yl}-1H-indole-2-carboxamide] | 2.1 µM
14 | CN[C@@H](CC(C)C)C(=O)N[C@@H]1CC[C@H]2CN(c3ccc(C(F)(F)F)cc3)C[C@H]21 [Example 740, N^2-methyl-N-{(3aS,4R,6aR)-2-[4-(trifluoromethyl)phenyl]octahydrocyclopenta[c]pyrrol-4-yl}-L-leucinamide] | 2 µM
15 | Fc1ccc(-c2nc(CN[C@H]3CC[C@@H]4CN(c5cccc(C(F)(F)F)n5)C[C@@H]43)co2)cc1 [Example 743, (3aR,4S,6aS)-N-{[2-(4-fluorophenyl)-1,3-oxazol-4-yl]methyl}-2-[6-(trifluoromethyl)pyridin-2-yl]octahydrocyclopenta[c]pyrrol-4-amine] | 1 µM
16 | FC(F)(F)c1cccc(N2C[C@H]3CC[C@H](NCc4c[nH]nn4)[C@H]3C2)n1 [Example 694, (3aR,4S,6aS)-N-(1H-1,2,3-triazol-4-ylmethyl)-2-[6-(trifluoromethyl)pyridin-2-yl]octahydrocyclopenta[c]pyrrol-4-amine] | 4 µM
17 | COc1ccc(N2C[C@H]3CC[C@H](NC(=O)[C@@H]4C[C@@H](F)CN4)[C@H]3C2)cc1 [Example 653, (4R)-4-fluoro-N-[(3aR,4S,6aS)-2-(4-methoxyphenyl)octahydrocyclopenta[c]pyrrol-4-yl]-L-prolinamide] | > 30 µM
18 | O=C(N[C@H]1CC[C@@H]2CN(c3cccc(C(F)(F)F)n3)C[C@@H]21)[C@H]1CC[C@@H](O)CC1 [Example 584, cis-4-hydroxy-N-{(3aR,4S,6aS)-2-[6-(trifluoromethyl)pyridin-2-yl]octahydrocyclopenta[c]pyrrol-4-yl}cyclohexanecarboxamide] | 2.06 µM

Same assay, conditions: IC50 (μM) or percent inhibition (* indicates 3 minute incubation, otherwise 60 minute), IC50; 3 minute pre-incubation (*); IMR32 cells, 80 mM KCl depolarization

Row | Structure (SMILES) | IC50
19 | CC(C)C(C(=O)N[C@H]1CC[C@@H]2CN(CC3CCCCC3)C[C@@H]21)c1ccccc1 (stereo partly drawn) [Example 83, N-[(3aR,4S,6aS)-2-(cyclohexylmethyl)octahydrocyclopenta[c]pyrrol-4-yl]-3-methyl-2-phenylbutanamide] | 2.6 µM

Same assay, conditions: read-out: IC50 (μM) or percent inhibition (* indicates 3 minute incubation, otherwise 60 minute); IC50; 60 minute pre-incubation with compound; IMR32 cells, 80 mM KCl depolarization

Row | Structure (SMILES) | IC50
20 | O=S(=O)(N[C@@H]1CC[C@H]2CN(CCCCCC(c3ccc(F)cc3)c3ccc(F)cc3)C[C@H]21)c1cccc(C(F)(F)F)c1 [Example 191, N-{(3aS,4R,6aR)-2-[6,6-bis(4-fluorophenyl)hexyl]octahydrocyclopenta[c]pyrrol-4-yl}-3-(trifluoromethyl)benzenesulfonamide] | 0.51 µM
21 | O=C(N[C@@H]1CC[C@H]2CN(Cc3ccc(C(F)(F)F)c(F)c3)C[C@H]21)C(C1CCCCC1)C1CCCCC1 [Example 76, 2,2-dicyclohexyl-N-{(3aS,4R,6aR)-2-[3-fluoro-4-(trifluoromethyl)benzyl]octahydrocyclopenta[c]pyrrol-4-yl}acetamide] | 5.67 µM
22 | O=C(CC(c1ccc(F)cc1)c1ccc(F)cc1)N[C@H]1CC[C@H]2CN(Cc3cccc(C(F)(F)F)c3)C[C@H]21 (relative stereo) [Example 133, 3,3-bis(4-fluorophenyl)-N-{(3aS*,4S*,6aR*)-2-[3-(trifluoromethyl)benzyl]octahydrocyclopenta[c]pyrrol-4-yl}propanamide] | 0.69 µM
23 | O=C(N[C@@H]1CC[C@H]2CN(S(=O)(=O)c3ccc(F)cc3)C[C@H]21)[C@@H]1CCCCN1 [Example 399, (2S)-N-{(3aS,4R,6aR)-2-[(4-fluorophenyl)sulfonyl]octahydrocyclopenta[c]pyrrol-4-yl}piperidine-2-carboxamide] | 15.3 µM
24 | CC(C)C(C(=O)N[C@H]1CC[C@@H]2CN(Cc3ccc(C(C)(C)C)cc3)C[C@@H]21)c1ccccc1 (stereo partly drawn) [Example 95, N-[(3aR,4S,6aS)-2-(4-tert-butylbenzyl)octahydrocyclopenta[c]pyrrol-4-yl]-3-methyl-2-phenylbutanamide] | 1.04 µM
25 | O=C(N[C@@H]1CC[C@H]2CN(CCCC(c3ccc(F)cc3)c3ccc(F)cc3)C[C@H]21)C(C1CCCCC1)C1CCCCC1 [Example 81, N-{(3aS,4R,6aR)-2-[4,4-bis(4-fluorophenyl)butyl]octahydrocyclopenta[c]pyrrol-4-yl}-2,2-dicyclohexylacetamide] | 1.13 µM
26 | CC(C)C(C(=O)N[C@H]1CC[C@@H]2CN(Cc3ccccc3)C[C@@H]21)c1ccc(Cl)cc1 (stereo partly drawn) [Example 43, N-[(3aR,4S,6aS)-2-benzyloctahydrocyclopenta[c]pyrrol-4-yl]-2-(4-chlorophenyl)-3-methylbutanamide] | 1.49 µM
27 | CCC[C@H](NC1CCCC1)C(=O)N[C@H]1CC[C@@H]2CN(S(=O)(=O)c3ccc(C(F)(F)F)cc3)C[C@@H]21 [Example 506, N^2-cyclopentyl-N^1-((3aR,4S,6aS)-2-{[4-(trifluoromethyl)phenyl]sulfonyl}octahydrocyclopenta[c]pyrrol-4-yl)-L-norvalinamide] | 1.71 µM
28 | O=S(=O)(c1cccc(C(F)(F)F)c1)N(C1CC1)[C@H]1CC[C@H]2CN(CCC(c3ccc(F)cc3)c3ccc(F)cc3)C[C@H]21 (relative stereo) [Example 203, N-{(3aS*,4S*,6aR*)-2-[3,3-bis(4-fluorophenyl)propyl]octahydrocyclopenta[c]pyrrol-4-yl}-N-cyclopropyl-3-(trifluoromethyl)benzenesulfonamide] | 1.54 µM
29 | CN[C@H](CC(C)C)C(=O)N[C@H]1CC[C@H]2CN(Cc3cccc(C(F)(F)F)c3)C[C@H]21 (relative stereo) [Example 160, N^2-methyl-N^1-{(3aS*,4S*,6aR*)-2-[3-(trifluoromethyl)benzyl]octahydrocyclopenta[c]pyrrol-4-yl}-D-leucinamide] | 3.78 µM
30 | O=C(N[C@H]1CC[C@@H]2CN(S(=O)(=O)c3cccc(C(F)(F)F)c3)C[C@@H]21)[C@@H]1Cc2ccccc2CN1 [Example 391, (3S)-N-((3aR,4S,6aS)-2-{[3-(trifluoromethyl)phenyl]sulfonyl}octahydrocyclopenta[c]pyrrol-4-yl)-1,2,3,4-tetrahydroisoquinoline-3-carboxamide] | 1.45 µM
31 | CC(C)(C)OC(=O)N1CCCC[C@H]1C(=O)N[C@@H]1CC[C@H]2CN(Cc3ccccc3)C[C@H]21 [Example 231, tert-butyl(2S)-2-({[(3aS,4R,6aR)-2-benzyloctahydrocyclopenta[c]pyrrol-4-yl]amino}carbonyl)piperidine-1-carboxylate] | 6.13 µM
